# In US20190175691A1, “METHODS FOR DETECTING AND MODULATING THE EMBRYONIC-FETAL TRANSITION IN MAMMALIAN SPECIES” (BioTime, Inc., priority 2016, published 2019):
# Starred links: 1 amine or outer side, 2 acyl side, 3 side chain; linkers in the order of their positions; H or OH if unused. Positions of bridges follow the written chain, without caps; N, C: chain ends. Non-standard residues stand in square brackets, D forms with d. Residues, ends and D or L forms follow the SMILES beside them. Chains are numbered I, II in the order given. Actinocin(9to1) = Cc1c2oc3c(C)ccc(C(=O)[*:1])c3nc-2c(C(=O)[*:2])c(N)c1=O; NMeV = CN[C@H](C(=O)O)C(C)C; Sar = CNCC(=O)O
# B1: AMH: anti-Mullerian hormone (AMH), secreted protein iTR factor (protein, UniProt P03971 452-560, looked up)
# Muellerian-inhibiting factor: SAGATAADGPCALRELSVDLRAERSVLIPETYQANNCQGVCGWPQSDRNPRYGNHVVLLLKMQVRGAALARPPCCVPTAYAGKLLISLSEERISAHHVPNMVATECGCR
# Test system: COX7A1 transcript
# Assay: Screen for iCM factors: increase of COX7A1 transcript in cancer cell lines
# Type: cell-based
# Conditions: Lung (A549), breast (MCF7), and prostate (PC3) cancer cell lines
# Source text: Lung (A549), breast (MCF7), and prostate (PC3) cancer cell lines were exposed to diverse factors including biologically active small molecules as well as RNAi directed to specific genes and the relative increase in levels of COX7A1 transcript was used as a marker of iCM.
row,Molecule,COX7A1 expression (relative increase of COX7A1 transcript as marker of iCM)
1,Cc1onc(-c2c(F)cccc2Cl)c1C(=O)N[C@@H]1C(=O)N2[C@@H]1SC(C)(C)[C@@H]2C(=O)O [flucloxacillin],increased COX7A1 expression
2,CN[C@@H]1C[C@H]2O[C@@](C)([C@@H]1OC)n1c3ccccc3c3c4c(c5c6ccccc6n2c5c31)C(=O)NC4 [staurosporine],increased COX7A1 expression
3,COc1cc([S+](C)[O-])ccc1-c1nc2ncccc2[nH]1 (stereo not shown) [sulmazole],increased COX7A1 expression
4,CC(C)[C@]12O[C@H]1[C@@H]1O[C@]13[C@]1(O[C@H]1C[C@H]1C4=C(CC[C@@]13C)C(=O)OC4)[C@@H]2O [triptolide],increased COX7A1 expression
5,COc1cc([C@@H]2c3cc4c(cc3[C@@H](O[C@@H]3O[C@@H]5CO[C@@H](c6cccs6)O[C@H]5[C@H](O)[C@H]3O)[C@H]3COC(=O)[C@H]23)OCO4)cc(OC)c1O [teniposide],increased COX7A1 expression
6,COc1cccc2c1C(=O)c1c(O)c3c(c(O)c1C2=O)C[C@@](O)(C(=O)CO)C[C@@H]3O[C@H]1C[C@H](N)[C@H](O)[C@H](C)O1 [doxorubicin],increased COX7A1 expression
7,CC1(C)[C@@H](OC(=O)CCC(=O)O)CC[C@]2(C)[C@H]3C(=O)C=C4[C@@H]5C[C@@](C)(C(=O)O)CC[C@]5(C)CC[C@@]4(C)[C@]3(C)CC[C@@H]12 [carbenoxolone],increased COX7A1 expression
8,CCc1c2c(nc3ccc(O)cc13)-c1cc3c(c(=O)n1C2)COC(=O)[C@]3(O)CC [SN-38],increased COX7A1 expression
9,CCN(CC)Cc1ccc2cc(COC(=O)Nc3ccc(C(=O)NO)cc3)ccc2c1 [givinostat],increased COX7A1 expression
10,COc1cccc2c1C(=O)c1c(O)c3c(c(O)c1C2=O)C[C@@](O)(C(C)=O)C[C@@H]3O[C@H]1C[C@H](N)[C@H](O)[C@H](C)O1 [daunorubicin],increased COX7A1 expression
11,"Cc1c2oc3c(C)ccc(C(=O)N[C@@H]4C(=O)N[C@H](C(C)C)C(=O)N5CCC[C@H]5C(=O)N(C)CC(=O)N(C)[C@@H](C(C)C)C(=O)O[C@@H]4C)c3nc-2c(C(=O)N[C@@H]2C(=O)N[C@H](C(C)C)C(=O)N3CCC[C@H]3C(=O)N(C)CC(=O)N(C)[C@@H](C(C)C)C(=O)O[C@@H]2C)c(N)c1=O [dactinomycin] (I: T[dV]P[Sar][NMeV] / II: T[dV]P[Sar][NMeV]; ester I:1-I:C, II:1-II:C; linker I:N-II:N via Actinocin(9to1))",increased COX7A1 expression
12,CC[C@@H]1C(=O)N(C)c2cnc(Nc3ccc(C(=O)NC4CCN(C)CC4)cc3OC)nc2N1C1CCCC1 [BI 2536],increased COX7A1 expression
13,COc1cc2ncnc(Nc3ccc(F)c(Cl)c3)c2cc1OCCCN1CCOCC1 [gefitinib],increased COX7A1 expression
14,CN1CC[C@H](c2c(O)cc(O)c3c(=O)cc(-c4ccccc4Cl)oc23)[C@H](O)C1 [alvocidib],increased COX7A1 expression
15,calyculin,increased COX7A1 expression
16,O=C1c2c(O)ccc(O)c2C(=O)c2c(NCCNCCO)ccc(NCCNCCO)c21 [mitoxantrone],increased COX7A1 expression
17,CC(/C=C/C(=O)NO)=C\[C@@H](C)C(=O)c1ccc(N(C)C)cc1 [trichostatin-A],increased COX7A1 expression

# Test system: COX7A1 transcript
# Assay: Screen for iTR factors: reduction of COX7A1 transcript in cancer cell lines
# Type: cell-based
# Conditions: Lung (A549), breast (MCF7), and prostate (PC3) cancer cell lines
# Source text: Values under cell lines represent proportional decreased values for COX7A1 transcript in the cell line.
# Lung (A549), breast (MCF7), and prostate (PC3) cancer cell lines were exposed to diverse factors including biologically active small molecules as well as RNAi directed to specific genes and the relative reduction of levels of COX7A1 transcript was used as a marker of iTR.
row,Molecule,COX7A1 expression (relative reduction of COX7A1 transcript as marker of iTR)
1,O=C(O)[C@]1(Cc2cccc(Nc3nccs3)n2)CC[C@@H](Oc2cccc(Cl)c2F)CC1 [MK-5108],reduce COX7A1 expression
2,C[C@@H]1C[C@H]2O[C@@H]2/C=C\C=C\C(=O)Cc2c(Cl)c(O)cc(O)c2C(=O)O1 [radicocol],reduce COX7A1 expression
3,CCn1cc(-c2ccnc3[nH]c(-c4cccc(CN(C)C)c4)cc23)c(-c2ccc(NC(=O)N(C)C)cc2)n1 [GSK1070916],reduce COX7A1 expression
4,CO[C@H]1/C=C\C=C(/C)C(=O)NC2=CC(=O)C(NCCN(C)C)=C(C[C@@H](C)C[C@H](OC)[C@H](O)[C@@H](C)/C=C(\C)[C@@H]1OC(N)=O)C2=O [alvespimycin],reduce COX7A1 expression
5,COc1cc(/C=C/C(=O)CC(=O)/C=C/c2ccc(O)c(OC)c2)ccc1O [curcumin],reduce COX7A1 expression

# Test system: umbilical cord-derived MSCs (MSCwj) and adult skin fibroblasts (MDW)
# Assay: Percent confluency after 80 hours with secreted GFER
# Type: cell-based
# Conditions: secreted GFER 0, 10.0 and 100 ng/mL, DMEM 10% FBS
# Procedure: (§1) The fibroblast line MDW (passage 5) is seeded in multiple wells of a 6 well plate and cultured to confluence. A 1.5 mm “scratch” was introduced onto the monolayer using a 200 ul pipette tip, thereby denuding the fibroblasts from the culture surface. Factors including 0.5 mM valproic acid, 10 ng/mL AMH, and 20 ng/mL GFER are added to the growth medium which as DMEM medium supplemented with 10% FBS. 24 hours later, the % of the denuded surface was determined by phase contrast microscopy. […] Due to the lability and diffusion of the factors when administered in vivo, the formulation of the factors alone or in combination in a hydrogel such as crosslinked hyaluronic acid or crosslinked hyaluronic acid and collagen provides a preferred method of delivering the factors to increase tissue regeneration in animals. Alternatively, umbilical cord-derived MSCs (MSCwj) and adult skin fibroblasts (MDW) each of which express fetal/adult markers such as COX7A1 are treated with the secreted form of GFER alone at concentrations of 0, 10.0 and 100 ng/mL in DMEM medium supplemented with 10% FBS an AMH
# d cultured for 80 hours and the % confluency is determined.
row,Molecule,confluency achieved
1,"GFER: GFER (Augmenter of Liver Regeneration (ALR)), secreted protein iTR factor",dose-dependent increase in confluency

# Test system: adult-derived MDW fibroblasts
# Assay: Scratch test on confluent MDW fibroblast monolayer
# Type: cell-based
# Conditions: MDW passage 5, 1.5 mm scratch, 24 hours; 0.5 mM valproic acid, 10 ng/mL AMH, 20 ng/mL GFER; control 20%
# Procedure: The identification of the secreted protein iTR factors GFER and AMH as well as the agent valproic acid, provides a novel cocktail of factors to generate iTR in vitro as well as in vivo. To determine the effects of the factors, cultured adult-derived MDW fibroblasts as well as umbilical cord-derived MSCs (MSCwj) were treated with varying concentrations of the factors and the rate of growth and regrowth following a scratch test are performed.
# as §1
row,Molecule,regeneration (coverage of the denuded wounded zone)
1,CCCC(CCC)C(=O)O [valproic acid],25%
2,"GFER: GFER (Augmenter of Liver Regeneration (ALR)), secreted protein iTR factor",28%
3,B1,68%

# Test system: MDW adult-derived skin fibroblasts
# Assay: Illumina bead array expression of COX7A1 and COL1A1 in MDW fibroblasts
# Type: cell-based
# Conditions: MDW passage 6-7, 6 days, mRNA for cMYC or SOX2 + 0.5 mM valproic acid
Molecule,expression of COX7A1,expression of the fibrosis marker COL1A1
CCCC(CCC)C(=O)O [valproic acid],reduced expression of COX7A1,decreased expression of the fibrosis marker COL1A1
